Data published in US11524950B2, “Treatment of immune-related and inflammatory diseases” (Celgene Corporation, priority 2012, dated 2022).
Read-outs that look alike come from different tables or passages of the source.

Assays:
[1] = tested on: IgG; assay: IgG production in normal B cell / PBMC differentiation cultures (ELISA); settings: Homo sapiens
Procedure: Step 1—B cell Activation—day 0 through day 4: Prepare fresh B cell cocktail by adding 50 μg/mL of human transferrin to B cell media. (Iscoves+10% PFBS, 1% P/S, and 5 μg/mL human insulin). […] Five milliliters (1×10^5/ml) of CD19+ B cell were added to each well of a 6 well flat-bottom plate (final cell count=5×10^5/well). Five L (lx)±compound/DMSO was added to each test well (0.1% final DMSO) and incubated at 37° C. for 4 days.
Step 2—Plasmablast Generation—day 4 through day 7: Cells were harvested and counted on the cell counter; an aliquot was removed for flow analysis, the remaining cells were washed with PBS. Prepare fresh B cell cocktail by adding 1 μg/ml of human transferrin to B cell media. […] Add B cell differentiation cocktail (final concentration): recombinant human IL-2 (20 U/mL), IL-10 (50 ng/mL), IL-15 (10 ng/mL), IL-6 (50 ng/mL) to cells. Add fresh B cell cocktail and transfer cells back to the original wells and bring volume back to 5 mL. Five L (1×)±compound/DMSO was added to each test well (0.1% final DMSO) and incubated at 37° C. for 4 days.
(§1) Supernatants (from section 8.2.3) were harvested and analyzed by ELISA for IgG and IgM production (ZeptoMetrix Corp. Buffalo, N.Y.).
The data was graphed using GraphPad Prism 5.0 software.
IgM and IgG were measured by ELISA.

[2] = tested on: H929 MM cell lines; assay: Cell proliferation in lenalidomide-sensitive and resistant H929 MM cells (7-AAD); assay type: cell-based; settings: Homo sapiens, NCI-H929, 120 h, 5 days, read-out: IC50 for inhibition of proliferation
Procedure: CRBN ubiquitination was measured in HEK293T cells, which were transfected with an amino-terminal His-biotin-tagged CRBN construct, then preincubated with compounds for one hour followed by treatment with the MG132 proteasome inhibitor (to arrest degradation of ubiquitinated proteins). Cells were lysed and processed to measure CRBN ubiquitination by SDS-PAGE and immunoblot analysis using an anti-ubiquitin antibody. Cell proliferation studies were conducted in enalidomide-sensitive and refractory multiple myeloma cells. Lenalidomide-resistant or sensitive H929 MM cell lines were treated with Compound IA for 5 days, and then cell proliferation and viability were assessed by 7-aminoactinomycin D (“7-ADD”) staining. T-cell costimulation was measured in purified primary human T cells stimulated using immobilized anti-CD3 antibody in cell culture for 2 days, and cytokine secretion was measured by ELISA.

[3] = tested on: H929 cells; assay: H929 cell cycle (S-phase) and survivin, pRB, p27 expression; assay type: cell-based
[4] = tested on: DBA/2 mice; assay: Bleomycin-induced dermal fibrosis mouse model (regression of established fibrosis); assay type: in vivo; settings: 30 mg/kg, PO, QD
Procedure: DBA/2 mice were used in this study. Eight animals were used per treatment group in the study. Mice were kept in the animal house under standard conditions with food and water ad libidum.
The compound was suspended, not dissolved, in this vehicle. The formulation was homogenized with a Teflon pestle and mortar (Potter-Elvehjem tissue grinder) using a motorized Eberbach tissue homogenizer. The daily drug stock concentration used in these studies was 3 mg/ml.
Bleomycin was obtained from the pharmacy of the University of Erlangen-Nuremberg and freshly prepared once a week. Skin fibrosis was induced in 6-week-old DBA mice by local intracutaneous injections of 100 μl of bleomycin dissolved in 0.9% NaCl, at a concentration of 0.5 mg/ml, every other day in defined areas of 1.5 cm^2 on the upper back.
To evaluate regression of fibrosis, a modified model of bleomycin induced dermal fibrosis was used. Mice were pre-challenged with bleomycin to induce a robust skin fibrosis. One group received treatment with the test compound, while challenge with bleomycin was ongoing for additional three weeks. The outcome of this group was compared to mice challenged with bleomycin for six weeks (prevention of further progression) and to mice challenged with bleomycin for three weeks followed by NaCl for additional three weeks (induction of regression). The following groups were used in the regression study: • Control group: Intradermal injection of NaCl for six weeks. Control treatment consisted of administration of the vehicle. • Untreated bleomycin group 1 (regression): Intradermal injection of bleomycin for three weeks followed by intradermal injections of NaCl for another three weeks. Treatment consisted of administration of the vehicle. […]
Dermal thickness was determined by staining with hematoxylin and eosin and activated fibroblasts by using immunohistochemistry for alpha smooth muscle actin (α-SMA). The dermal thickness, as determined by the modified Rodnan Skin Score, is currently the most common primary outcome in human clinical trials for anti-fibrotic agents in SSc. […] Dermal thickness was analyzed with a Nikon Eclipse 80i microscope (Nikon, Badhoevedorp, The Netherlands) by measuring the maximal distance between the epidermal-dermal junction and the dermal-subcutaneous fat junction at 4 different skin sections in each mouse. […]
For quantification of myofibroblasts, skin sections were deparaffinized and incubated with 5% bovine serum albumin for 60 minutes. Cells positive for α-SMA were detected by incubation with monoclonal anti-α-SMA antibodies (clone 1A4; Sigma-Aldrich, Steinheim, Germany) for 2 hours at room temperature followed by incubation with 3% hydrogen peroxide for 10 minutes. […]

[5] = tested on: NZBWF1/J mouse; assay: NZBWF1/J mouse model of systemic lupus erythematosus; assay type: in vivo; settings: 30 mg/kg; week 4
[6] = tested on: IRF4, BLIMP1, XBP1, PAX5, IgJ; assay: B and plasma cell transcription factor gene expression (RT-PCR), normal B cell differentiation culture; assay type: cell-based, human
Procedure: Differentiated B cells (see section 8.2.3) were harvested for total ribonucleic acid (RNA) preparation with a Qiacube RNA extraction instrument (Qiagen, Valencia, Calif.) using QIAGEN RNeasy mini spin-column kits. Purified RNA was reverse transcribed into cDNA with thermal cycler [MJ Research; Inc., St. Bruno, Quebec, Canada) using a reverse-transcriptase kit (Applied Biosystems). The gene expression assay was carried out using 7500 RT-PCR system (Applied Biosystems) in triplicate. A glyceraldehyde 3-phosphate dehydrogenase gene expression assay control was run for each sample and used as a normalization control. For each gene, samples within each experiment were normalized to 0.1% DMSO treatment only for that particular time point.

[7] = tested on: IgG; assay: IgG production by SLE patient PBMC (ELISA); settings: Homo sapiens, read-out: IgG IC50 (nM) SLE (n = 3)
Procedure: as §1
B Cell Differentiation Protocol: Enriched B cells were isolated from fresh buffy-coat (leukocyte enriched units) by Ficoll-Hypaque density gradient centrifugation followed by incubation with EasySep negative selection human B cell enrichment kit (Stem cell technologies). In brief, 2×10^8/ml PBMC were mixed with 4 ml of Robosep buffer and transferred to a 14 mL polystyrene round bottom tube. EasySep Human B cell enrichment cocktail (200 μL) was added per tube, vortexed and incubated at room temperature for 10 minutes. […] After cells were counted, an aliquot was removed for FACS analysis and the remaining cells were used for culture. […]
CD19+ peripheral blood human B cells from normal donors, or total peripheral blood mononuclear cell PBMC for patients with systemic lupus erythematosus (“SLE”), were cultured in the presence of interleukin (“IL”)-2, IL-10, IL15, TLR9 agonist, and CD40 L for 4 days, followed by IL-2, IL-6, IL-10 and IL-15 for another 3 days. Cells were counted, viability assessed, and expression of CD20, CD38, CD44, and CD83 were measured by flow cytometry. Plasmablast lineage factors IRF-4, BLIMP-1, XBP-1, and IgJ, and germinal center markers PAX-5 and BCL-6 were measured by qRT-PCR. […] Secreted immunoglobulins IgG and IgM were measured by ELISA.

O=C1CC[C@H](N2Cc3c(OCc4ccc(CN5CCOCC5)cc4)cccc3C2=O)C(=O)N1 [Test compound, (S)-3-[4-(4-morphlin-4-ylmethylbenzyloxy)-1-oxo-1,3-dihydro-isoindo-2-yl]piperidine-2,6-dione]
IC50 ([1]; B-cell, read-out: secreted IgG production IC50): 1.8 nM | IC50 ([1]; PBMC, read-out: IgG IC50 (nM) Normal (n = 3)): 2.1 nM | IC50 ([1]; read-out: IgG production IC50): 1.8 nM | IC50 ([2]; DMSO-treated subclone): 40 nM | IC50 ([2]; lenalidomide resistant subclones): 510 to 1580 nM | IC50 ([2]; parental H929 cell line): 10 nM | decrease in cell cycle (S-phase) ([3]; 24 hours of treatment): 50% | expression of cyclin-dependent kinase inhibitor p27 ([3]; 48 hours): increased expression | expression of retinoblastoma protein (pRB) ([3]; 48 hours): decreased expression | expression of survivin ([3]; 48 hours): decreased expression | dermal thickening [4]: no effect | numbers of myofibroblasts [4]: did not have an effect | anti-double stranded DNA autoantibody level, increase [5]: 86% | peripheral blood B cells, decrease [5]: 25% | splenic B cells [5]: no change | B cell transcription factor PAX5 [6]: enhanced | expression of plasma cell transcription factor BLIMP1 [6]: dose-dependently inhibited | expression of plasma cell transcription factor RF4 [6]: dose-dependently inhibited | expression of plasma cell transcription factor XBP1 [6]: dose-dependently inhibited | BLIMP-1 gene expression ([6]; day 7, 20 nM, qRT-PCR): 14.3 % of control | IRF-4 gene expression ([6]; day 7, 20 nM, qRT-PCR): 20.5 % of control | IgJ gene expression ([6]; day 7, 20 nM, qRT-PCR): 31.5 % of control | XBP-1 gene expression ([6]; day 7, 20 nM, qRT-PCR): 15.1 % of control | IC50 [7]: 3.2 nM
